How the values were obtained:
Cathepsin B [1] = biological target: T1, Cathepsin B (Homo sapiens, UniProt P07858); assay: Selectivity ratio between Cathepsin B and Cathepsin K
Procathepsin L [2] = biological target: T2, Procathepsin L (Homo sapiens, UniProt P07711); assay: Inhibitory activity was measured against Cathepsin L
Target sequence in this assay (P07711 whole entry): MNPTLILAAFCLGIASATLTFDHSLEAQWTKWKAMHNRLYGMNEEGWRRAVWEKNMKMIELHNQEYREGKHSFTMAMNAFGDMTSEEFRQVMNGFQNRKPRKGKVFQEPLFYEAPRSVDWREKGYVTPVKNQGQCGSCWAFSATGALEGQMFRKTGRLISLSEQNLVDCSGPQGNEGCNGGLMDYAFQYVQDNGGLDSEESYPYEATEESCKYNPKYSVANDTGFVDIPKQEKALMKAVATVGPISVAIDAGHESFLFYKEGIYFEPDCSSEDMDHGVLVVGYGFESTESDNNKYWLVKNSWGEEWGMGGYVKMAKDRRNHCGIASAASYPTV

Cathepsin K = biological target: T3, Cathepsin K (Homo sapiens, UniProt P43235); assay: Inhibitory activity was measured against Cathepsin K
T3 sequence (P43235 whole entry): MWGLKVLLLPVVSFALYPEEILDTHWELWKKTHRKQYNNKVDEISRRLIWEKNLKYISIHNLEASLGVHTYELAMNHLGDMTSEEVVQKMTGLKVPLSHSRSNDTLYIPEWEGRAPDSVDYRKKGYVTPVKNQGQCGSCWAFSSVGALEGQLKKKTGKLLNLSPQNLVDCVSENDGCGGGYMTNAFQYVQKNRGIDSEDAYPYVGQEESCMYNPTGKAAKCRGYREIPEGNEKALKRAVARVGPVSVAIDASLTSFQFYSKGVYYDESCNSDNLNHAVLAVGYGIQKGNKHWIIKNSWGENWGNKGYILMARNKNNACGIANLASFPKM

Procathepsin L [3] = biological target: T2, Procathepsin L; assay: Selectivity ratio between Cathepsin L and Cathepsin K
Target sequence in this assay (P07711 114-333 limits assumed): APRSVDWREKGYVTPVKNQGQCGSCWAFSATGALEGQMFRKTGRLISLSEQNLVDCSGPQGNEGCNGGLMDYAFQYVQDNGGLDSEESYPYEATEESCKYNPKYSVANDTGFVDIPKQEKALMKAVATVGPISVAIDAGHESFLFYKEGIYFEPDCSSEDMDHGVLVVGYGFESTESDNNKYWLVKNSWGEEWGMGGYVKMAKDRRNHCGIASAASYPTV

Cathepsin S [4] = biological target: T4, Cathepsin S (Homo sapiens, UniProt P25774); assay: Selectivity ratio between Cathepsin S and Cathepsin K
Target sequence in this assay (P25774 115-331 limits assumed): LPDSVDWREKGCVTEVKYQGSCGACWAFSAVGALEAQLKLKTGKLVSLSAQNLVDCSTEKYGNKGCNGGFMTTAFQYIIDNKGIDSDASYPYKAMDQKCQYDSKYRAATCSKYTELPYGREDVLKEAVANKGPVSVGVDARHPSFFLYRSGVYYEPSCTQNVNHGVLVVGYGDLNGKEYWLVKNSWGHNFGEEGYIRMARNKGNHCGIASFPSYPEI

Cathepsin B [5] = biological target: T1, Cathepsin B; assay: Inhibitory activity was measured against Cathepsin B
Cathepsin S [6] = biological target: T4, Cathepsin S; assay: Inhibitory activity was measured against Cathepsin S
Target sequence in this assay (P25774 whole entry): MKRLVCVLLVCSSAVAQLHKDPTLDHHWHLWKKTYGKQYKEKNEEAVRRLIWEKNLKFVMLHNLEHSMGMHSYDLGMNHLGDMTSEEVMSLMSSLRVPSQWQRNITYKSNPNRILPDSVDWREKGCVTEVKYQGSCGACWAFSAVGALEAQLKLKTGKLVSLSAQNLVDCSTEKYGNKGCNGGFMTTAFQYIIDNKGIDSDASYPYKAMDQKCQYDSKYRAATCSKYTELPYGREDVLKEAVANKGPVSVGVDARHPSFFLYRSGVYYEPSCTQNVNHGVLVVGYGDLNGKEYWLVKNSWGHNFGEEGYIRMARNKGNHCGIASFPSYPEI

SMILES | Ratio (Cathepsin B [1]) | Ki (Procathepsin L [2]) | Ki (Cathepsin K) | Ratio (Procathepsin L [3]) | Ratio (Cathepsin S [4]) | Ki (Cathepsin B [5]) | Ki (Cathepsin S [6])
CC(=O)O[C@@H]1NC(=O)[C@H]1NC(=O)[C@@H]1CCC[C@@H]1NC(=O)OCc1ccccc1 | 24 | > 150 µM | 2.1 µM | > 70 | 5 | 52 µM | 11 µM
CC(=O)O[C@@H]1NC(=O)[C@H]1NC(=O)C1CCCN1C(=O)OCc1ccccc1 (stereo partly drawn) | 120 | > 150 µM | 0.95 µM | > 160 | > 160 | 120 µM | > 150 µM
CC(=O)O[C@@H]1NC(=O)[C@H]1NC(=O)C1CCCCN1C(=O)OCc1ccccc1 (stereo partly drawn) | 320 | > 150 µM | 0.2 µM | > 750 | 100 | 65 µM | 20 µM
CC(=O)O[C@@H]1NC(=O)[C@H]1NC(=O)[C@H](CC(C)C)NC(=O)OCc1ccccc1 | 950 | 0.088 µM | 0.0022 µM | 40 | 4 | 2.1 µM | 0.0092 µM

Now from value to molecule:

Ratio (Cathepsin B [1]) | Ki (Procathepsin L [2]) | Ki (Cathepsin K) | Ratio (Procathepsin L [3]) | Ratio (Cathepsin S [4]) | Ki (Cathepsin B [5]) | Ki (Cathepsin S [6]) | SMILES
368 | 3.4 µM | 0.38 µM | 9 | 87 | 140 µM | 33 µM | O=C(NC1(C(=O)N[C@@H]2C(=O)N[C@H]2Oc2ccccc2)CCCCC1)OCc1ccccc1
48 | 140 µM | 0.16 µM | 870 | 175 | 7.7 µM | 28 µM | CC(=O)O[C@@H]1NC(=O)[C@H]1NC(=O)C1(NC(=O)OCc2ccccc2)CCCC1
> 40 | 16 µM | 3.6 µM | 4 | 15 | > 150 µM | 53 µM | O=C(NC1(C(=O)N[C@@H]2C(=O)N[C@@H]2Oc2ccccc2)CCCCC1)OCc1ccccc1
750 | 6.8 µM | 0.0057 µM | 1190 | 160 | 4.3 µM | 0.95 µM | CC(=O)O[C@@H]1NC(=O)[C@H]1NC(=O)C1(NC(=O)OCc2ccccc2)CCCCC1
180 | 3.7 µM | 0.0088 µM | 420 | 15 | 1.6 µM | 0.13 µM | CC(=O)O[C@@H]1NC(=O)[C@H]1NC(=O)[C@@H]1CCCC[C@@H]1NC(=O)OCc1ccccc1

Source: ChEMBL document CHEMBL1136543, “3,4-disubstituted azetidinones as selective inhibitors of the cysteine protease cathepsin K. Exploring P2 elements for selectivity” (Bioorg Med Chem Lett, 2003)
